The test system of experiment [1] is immature rabbits sensitized with estradiol. Description: Clauberg test: proliferation of endometric lace. The format is in vivo, rabbit. Particulars: for MacPhail units: subcutaneous, 5 days. As to the method:
The progestomimetic activity was also determined by the Clauberg test in which groups of 3 immature rabbits were previously sensitized by subcutaneous administration of estradiol for 5 days at a daily dose of 5 μg. Two days after the last treatment, the compound A of Example 1 in solution in sesame oil containing 5% of benzyl alcohol was subcutaneously administered daily for 5 days and the rabbits were killed on the 6th day. The uterus was removed and the proliferation of endometric lace which is characteristic of progestomimetic activity was determined in MacPhail units.

Experiment [2] concerns the target T1, specific progesterone receptors (uterine cytosol) (Oryctolagus cuniculus, UniProt P06186).
T1 construct: the uterus was removed and homogenized in a buffered solution; from tissue; host or cells: uterus cytosol (105,000 g supernatant) of immature estradiol-treated rabbits
T1 sequence (P06186 1-930): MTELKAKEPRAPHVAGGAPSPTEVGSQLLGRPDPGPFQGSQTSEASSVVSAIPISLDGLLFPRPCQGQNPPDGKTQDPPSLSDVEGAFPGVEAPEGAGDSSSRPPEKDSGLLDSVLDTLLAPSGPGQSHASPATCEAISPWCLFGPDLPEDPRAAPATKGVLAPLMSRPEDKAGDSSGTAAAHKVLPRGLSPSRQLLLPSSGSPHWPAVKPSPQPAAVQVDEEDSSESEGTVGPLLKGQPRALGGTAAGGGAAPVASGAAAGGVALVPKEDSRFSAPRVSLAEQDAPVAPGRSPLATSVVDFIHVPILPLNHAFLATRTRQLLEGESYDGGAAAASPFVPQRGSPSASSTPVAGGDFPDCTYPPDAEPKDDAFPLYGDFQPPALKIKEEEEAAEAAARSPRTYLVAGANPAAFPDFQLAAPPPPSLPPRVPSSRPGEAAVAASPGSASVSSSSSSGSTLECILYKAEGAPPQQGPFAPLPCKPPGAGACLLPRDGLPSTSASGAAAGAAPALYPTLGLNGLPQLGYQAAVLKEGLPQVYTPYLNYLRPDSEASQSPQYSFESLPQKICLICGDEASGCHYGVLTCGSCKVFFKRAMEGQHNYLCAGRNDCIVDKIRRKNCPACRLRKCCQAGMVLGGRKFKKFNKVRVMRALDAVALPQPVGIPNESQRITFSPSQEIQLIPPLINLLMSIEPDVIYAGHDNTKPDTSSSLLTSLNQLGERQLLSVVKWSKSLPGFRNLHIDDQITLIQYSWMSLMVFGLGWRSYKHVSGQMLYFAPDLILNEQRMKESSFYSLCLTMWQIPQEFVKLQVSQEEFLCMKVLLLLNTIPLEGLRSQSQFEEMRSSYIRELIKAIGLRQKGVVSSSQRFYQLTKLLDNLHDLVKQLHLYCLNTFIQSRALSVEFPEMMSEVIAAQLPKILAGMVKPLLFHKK
The experiment is described as follows: hormonal receptor method: displacement of tritiated Product R in rabbit uterine cytosol. It counts as binding. Conditions: for ARL (relative affinity of the test product): progesterone = 100. As to the method:
The progestomimetic activity was determined for the product A of Example 1 by the hormonal receptor method of Raynaud et al [J. Ster. Biochem., Vol. 6 (1975), p. 615-622 and Physiology and Genetics of Reproduction, 1975, Part A, p. 143-160]. Immature rabbits received 25 μg of estradiol percutaneously and were sacrificed after 5 days and the uterus was removed and homogenized in a buffered solution of 10 mM of tromethamine, 0.25 M of saccharose and a pH of 7.4 was kept with hydrochloric acid. The homogenate was centrifuged at 105,000 g per hour and the surnageant or cytosol was adjusted to a solution of 1/50 (weight/volume). […] The radioactivity of the tritiated product R was determined after 2 hours and after 24 hours by the technique of adsorption on carbondextran (1.25%-0.625%). The plots were the curves of the right parallel of the axis of abscisses of ordinate [formula] wherein Bo is the maximum amount of tied tritiated product R measured in the incubation containing only tritiated product R and Bmin is the minimum amount of tied tritiated product R (non-specific) measured in the incubation containing tritiated product R and a large excess of cold product R (2500×10^-9 M) and the curves representing the percentages of tied tritiated product R B/Bo as a logarithmatic function of the concentrations of added cold product R.
The intersections of these I50 straight lines and the curves permit the determination of the values: CP--concentration of cold progesterone which inhibits by 50% the fixation of the tritiated product R and CX--concentration of test product which inhibits by 50% the fixation of tritiated product R. The relative affinity of the test product (ARL) was determined by the formula [formula] and the results are reported in Table I

The test system of experiment [3] is immature female mice. The experiment is described as follows: antiestrogenic activity, uterus weight (method of Rubin and Dorfman et al). It counts as in vivo. As to the method:
The estrogenic activity of the product A of Example 1 was also determined by the method of Rubin [Endocrinology, Vol. 49 (1951), p. 429] and Dorfman et al [Methods in Hormone Research, Vol. II (1962), p. 118] in which groups of 4 immature female mice 18 days old received once a day for 3 days a subcutaneous injection of estradiol only, only the test product or estradiol and the test product. In the last case, separate injections were used. The animals were killed on the 4th day and the uterus was removed, dissected and weighed. The test product was administered in a volume of 0.1 ml of sesame oil solution containing 5% of benzyl alcohol at a total dose of 0.27 μg of estradiol and the test compound was used at total doses of 0.3, 1.0, 3 and 10 μg.

Setting [4] is: total dose 0.3 μg + estradiol 0.27 μg.
The mark [5] stands for this setting: total dose 1 μg + estradiol 0.27 μg.
[6] abbreviates: total dose 3 μg + estradiol 0.27 μg.
The mark [7] stands for this setting: total dose 10 μg + estradiol 0.27 μg.

Consider `CC(O)C(=O)C1(C)CCC2C3CCC4=CC(=O)CCC4=C3CCC21C` (single isomer, unassigned) [Product A of Example 1, 17α-methyl-17β-(2-hydroxy-1-oxopropyl)-Δ^4,9-estradiene-3-one], for which the values for the MacPhail units in experiment [1] (1 μg daily), in experiment [1] (3 μg daily) and in experiment [1] (10 μg daily) were 2.2 MacPhail units, 3.4 MacPhail units and 3.4 MacPhail units, respectively. In experiment [1] (result in words), the progestomimetic activity result is reported as “very strong progestomimetic activity”. The “ARL (relative affinity of the test product)” value in experiment [2] (2 h incubation at 0° C.) is reported as 204; in experiment [2] (24 h incubation at 0° C.) it was 688. In addition, the “affinity for specific uterine reception of progesterone compared with progesterone” value in experiment [2] (result in words) is “much greater affinity”. Further, the “antiestrogenic activity against estradiol” value in experiment [3] (dose of 1 μg, result in words) is reported as “clear antiestrogenic activity”. In addition, the “Average Weight of uterus” value in experiment [3] (test product only, total dose 0.3 μg) was 14.6 mg; in experiment [3] (test product only, total dose 1 μg), 13.0 mg; in experiment [3] (test product only, total dose 3 μg), 17.1 mg; in experiment [3] (test product only, total dose 10 μg), 15.8 mg; in experiment [3] (setting [4]), 80.5 mg; in experiment [3] (setting [5]), 59.6 mg. Moreover, the “Average Weight of uterus” value in experiment [3] (setting [6]) turned out to be 38.5 mg; in experiment [3] (setting [7]) it was 39.6 mg. Besides, the “change of average uterus weight versus estradiol only” value in experiment [3] (setting [4]) is reported as -19%; in experiment [3] (setting [5]) it was -39%; in experiment [3] (setting [6]), -61%; in experiment [3] (setting [7]), -60%.
With `C[C@]12CC[C@@H]3c4ccc(O)cc4CC[C@H]3[C@@H]1CC[C@@H]2O` [Estradiol, reference compound], the “Average Weight of uterus” value in experiment [3] (estradiol only, total dose 0.27 μg, subcutaneous, 3 days) was found to be 99.3 mg.

Values taken from patent publication US4273771A, “Novel Δ^4,9 -gonadiene-21-ol-3,20-diones” (Roussel Uclaf, priority 1978, dated 1981).
